The values below come from US10807951B2, “mTORC1 modulators” (THE REGENTS OF THE UNIVERSITY OF CALIFORNIA, priority 2017, dated 2020).

Series [1] concerns the target LAMTOR5 (Homo sapiens, UniProt O43504). As to the kind of experiment: Rhodamine labeling with alkyne probe on purified Lamtor-Rag complexes. Type of series: binding. Conditions: preliminary experiments. An excerpt:
FIGS. 8A-8B. (FIG. 8A) Structures of CC 2-11 and CC 1-44. CC 2-11 bears an alkyne group on a separate ring from the cysteine-reactive warhead. The presence of the alkyne group enables us to directly label the modified target protein (e.g. Lamtor5) with biotin or rhodamine groups, either in gels or in complex proteomes. […] Thus, CC 2-11 allows precise mapping of the target cysteines as well as accurate identification of the off-targets.
We also synthesized a CC 1-44 derivative, named CC 2-11, which bears an alkyne group on a separate ring from the cysteine-reactive warhead (FIG. 8A). The presence of the alkyne group enables us to directly label the modified target protein (e.g. Lamtor5) with biotin or rhodamine groups, either in gels or in complex proteomes. […] Thus, CC 2-11 will allow precise mapping of the target cysteines as well as accurate identification of the off-targets.

The conditions of series [2]: in vivo; cited from earlier work.

Molecules are shown by their SMILES.

With `C#Cc1cc(COc2cccc3c2ccn3C(=O)C=C)cc(C(F)(F)F)c1` [CC 2-11], in series [1], the “direct rhodamine labeling of target protein by alkyne probe” value was “enables rhodamine labeling of a 28 KDa band corresponding to Lamtor5”. Turning to `CO[C@H]1C[C@@H]2CC[C@@H](C)[C@@](O)(O2)C(=O)C(=O)N2CCCC[C@H]2C(=O)O[C@H]([C@H](C)C[C@@H]2CC[C@@H](O)[C@H](OC)C2)CC(=O)[C@H](C)/C=C(\C)[C@@H](O)[C@@H](OC)C(=O)[C@H](C)C[C@H](C)/C=C/C=C/C=C/1C` [rapamycin], in series [2], the bioavailability entry is “good”.
